Here are results for three compounds from patent publication US20240415809A1, “PHARMACEUTICAL COMBINATIONS” (ZYDUS LIFESCIENCES LIMITED, priority 2021, published 2024).

Holding throughout (type): in vivo
The test system of assay [1] is DSS induced ulcerative colitis in C57 mice. Put plainly: Apremilast and Rifaximin alone and as fixed dose combination (FDC) in DSS induced ulcerative colitis in C57 mice (Example 8). To be noted: for % change in DAI vs DSS vehicle control / % change in bleeding score vs DSS vehicle control / The rectal bleeding score, Day-6 / The disease activity index (DAI) score, Day-6: Day-6, Rifaximin 102.8 mg/kg p.o. BID, Apremilast 2.1 mg/kg p.o. BID, alone or combined; for The disease activity index (DAI) score, Day-6: six days, 2.5% DSS; for improvement in disease activity index (DAI) score / improvement in rectal bleeding: Example 8, Apremilast equivalent to 10 mg, Rifaximin equivalent to 500 mg human dose. The procedure:
In this study, we have used Apremilast which is equivalent to 10 mg of human dose and Rifaximin which is equivalent to 500 mg of human dose in animal model, which is DSS (Dextran sulfate sodium) induced ulcerative colitis in C57 mice (Br J Pharmacol. 2019 July; 176 (13): 2209-2226. doi: 10.1111/bph.14667. Epub 2019 May 17). The colitis induced by
C57 mice of 9-10 weeks age were used for this study. On the day of study initiation (day-0) animals were randomized based on their body weight in to different treatment groups as below:
On day-0 animals were randomized based on body weight and from the same day onwards animals were administered with 2.5% DSS in RO water along with the test compounds till day-6. The test compounds were formulated in Tween 80 and 0.5% Na. CMC in (0.5:99.50%) ratio and oral administration was done twice a day for six days. During the duration of the experiment, a disease activity index (DAI) score was assessed to evaluate the clinical progression of ulcerative colitis.
The DAI was calculated by grading on a scale of 0-5 using the following parameters: loss of body weight (0=normal; 1=0-5%; 2=6-10%; 3=11-15%; 4=16-20%, 5=>20%), stool consistency (0=normal; 1=soft stools; 2=loose stools; 3=watery diarrhea) and rectal bleeding (0=none; 2=presence of hemoccult; 4=severe bleeding). (Ref: Cytokine 2014, 66, 30-39).
(§1) On the day of termination (Day-6), DAI score was assessed followed by nonfasted blood collection. Then animals were sacrificed and relevant tissues were collected in 10% formalin for histological analysis or snap frozen in liquid nitrogen for other assays.
(§2) With the help of MS Excel, percent change vs disease control (DSS vehicle control) in various parameters were calculated and statistical analysis was performed using graph pad prism software.

For assay [2] the test system is unchanged. Kind of assay: Apremilast and Rifaximin alone and in combination in DSS induced ulcerative colitis in C57 mice (Example 7). The note with it: for % change in DAI vs DSS vehicle control / % change in bleeding score vs DSS vehicle control / The rectal bleeding score, Day-6 / The disease activity index (DAI) score, Day-6: Day-6, Rifaximin 19 mg/kg p.o., Apremilast 12.5 mg/kg p.o., alone or combined, once a day for six days; for The disease activity index (DAI) score, Day-6: 2.5% DSS; for improvement in disease activity index (DAI) score: Example 7, Apremilast human equivalent mice dose, low dose of Rifaximin.
From the text: (§3) In this study, we have used human equivalent mice dose of Apremilast and very ( 1/18th-fold) low dose of Rifaximin in animal model, which is DSS (Dextran sulfate sodium) induced ulcerative colitis in C57 mice (Br J Pharmacol. 2019 July; 176 (13): 2209-2226. doi: 10.1111/bph.14667. Epub 2019 May 17). The colitis induced by DSS, presents good reproducibility and also mimics clinical symptoms, inflammatory markers and histopathological features which is similar to IBD in humans (Cell Mol Gastroenterol Hepatol. 2015 Mar. 1; 1 (2): 154-170. doi: 10.1016/j.jcmgh.2015.01.006., Arq Gastroenterol. 2014 April-June; 51 (2): 107-12. doi: 10.1590/s0004-28032014000200007. PMID: 25003261).
(§4) C57 mice of 10-12 weeks age were used for this study. On the day of study initiation (day-0) animals were randomized based on their body weight in to different treatment groups as below:
(§5) On day-0 animals were randomized based on body weight and from the same day onwards animals were administered with 2.5% DSS in RO water along with the test compounds till day-6.
(§6) The test compounds were formulated in Tween 80 and 0.5% Na. CMC in (0.5:99.50%) ratio and oral administration was done once a day for six days. During the duration of the experiment, a disease activity index (DAI) score was assessed to evaluate the clinical progression of ulcerative colitis. The DAI was calculated by grading on a scale of 0-5 using the following parameters: loss of body weight (0=normal; 1=0-5%; 2=6-10%; 3=11-15%; 4=16-20%, 5=>20%), stool consistency (0=normal; 1=soft stools; 2=loose stools; 3=watery diarrhea) and rectal bleeding (0=none; 2=presence of hemoccult; 4=severe bleeding). (Ref: Cytokine 2014, 66, 30-39).
as §1, §2

The test system is the same in assay [3]. Put plainly: ADD ON effect of FDC with Mesalamine in DSS induced ulcerative colitis in C57 mice (Example 10). The procedure: as §3, with “To study the ADD ON effect of FDC (combination” for “In this study, we have used human equivalent mice dose”, “Apremilast equivalent to 15 mg” for “Apremilast”, “Rifaximin equivalent to 500 mg of human dose) with mesalamine equivalent to 800 mg of human” for “very ( 1/18th-fold) low”, “dose” for “dose of Rifaximin”
as §4, §5
as §6, with “twice” for “once”
On the day of termination (Day-6), DAI score was assessed followed by nonfasted blood collection. Then animals were sacrificed, colon length was measured and then collected in 10% formalin for histological analysis or snap frozen in liquid nitrogen for other assays.
With the help of MS Excel, percent change vs disease control (DSS vehicle control) in various parameters were calculated and statistical analysis was performed using graph pad prism software. Percentage improvement of colon length was calculated by calculating the decrease in colon length due to disease from water vehicle control group and then improvement in colon length against DSS vehicle control group by considering the colon length of water vehicle control group as 100%.

Setting [4] is: Day-6, Mesalamine 164.4 mg/kg p.o. BID, FDC = Rifaximin 102.8 mg/kg + Apremilast 3.1 mg/kg p.o. BID.

For the compound `CCOc1cc(C(CS(C)(=O)=O)N2C(=O)c3cccc(NC(C)=O)c3C2=O)ccc1OC` (single isomer, unassigned; (+)) [Apremilast, (+)-2-[1-(3-ethoxy-4-methoxyphenyl)-2-methylsulfonylethyl]-4-acetylaminoisoindoline-1,3-dione], in assay [1], the “% change in DAI vs DSS vehicle control” value was −11.5 ± 9.5%; the “% change in bleeding score vs DSS vehicle control” value (shortened to “% change in bleeding score”) was −16.7 ± 17.6%; the “The rectal bleeding score, Day-6” value stood at 2.0 ± 0.4; the “The disease activity index (DAI) score, Day-6” value (from here on “The disease activity index”) was found to be 6.9 ± 0.7. For the same compound, in assay [1], the “improvement in disease activity index (DAI) score” value was 12% and the “improvement in rectal bleeding” value came to 17%. Moreover, in assay [2], the “% change in DAI vs DSS vehicle control” value is reported as −32.8 ± 16.7%; the “% change in bleeding score” value is −57.1 ± 21.8%; the “The rectal bleeding score, Day-6” value stood at 1.2 ± 0.6; the “The disease activity index” value is recorded as 4.1 ± 1.0. Also, the “improvement in disease activity index (DAI) score” value in assay [2] worked out at 32.8%.

Take `Nc1ccc(O)c(C(=O)O)c1` [Mesalamine]: in assay [3] (setting [4]), the “% change in DAI vs DSS vehicle control” value is listed as −40.2 ± 5.0%; the “% improvement in colon length vs DSS vehicle control” value turned out to be 39.3 ± 11.0%; the “The Colon length, Day-6” value stood at 6.3 ± 0.2 cm. Further, in assay [3] (Day-6, Mesalamine 164.4 mg/kg p.o. BID, FDC = Rifaximin 102.8 mg/kg + Apremilast 3.1 mg/kg p.o. BID, six days), the “The disease activity index” value is 3.1 ± 0.3. Further, the “improvement in disease activity index (DAI) score” value in assay [3] (Mesalamine equivalent to 800 mg, FDC = Apremilast equivalent to 15 mg and Rifaximin equivalent to 500 mg of human dose) is recorded as 40%.

Take `CO[C@H]1/C=C/O[C@@]2(C)Oc3c(C)c(O)c4c(O)c(c5c(nc6cc(C)ccn65)c4c3C2=O)NC(=O)/C(C)=C\C=C\[C@H](C)[C@H](O)[C@@H](C)[C@@H](O)[C@@H](C)[C@H](OC(C)=O)[C@@H]1C` [Rifaximin]: in assay [1], the “% change in DAI vs DSS vehicle control” value was −17.9 ± 11.2%; the “% change in bleeding score” value is −16.7 ± 21.5%; the “The rectal bleeding score, Day-6” value was 2.0 ± 0.5; the “The disease activity index” value came out at 6.4 ± 0.9. For the same compound, in assay [1], the “improvement in disease activity index (DAI) score” value is recorded as 18% and the “improvement in rectal bleeding” value is on record as 17%. Besides, in assay [2], the “% change in DAI vs DSS vehicle control” value was −3.3 ± 11.8%; the “% change in bleeding score” value is −39.3 ± 16.9%; the “The rectal bleeding score, Day-6” value stood at 1.7 ± 0.5; the “The disease activity index” value was found to be 5.9 ± 0.7. Moreover, the “improvement in disease activity index (DAI) score” value in assay [2] was “didn't show any improvement”.
